molecular target: T1, cytosolic receptor of retinoic acid (C.R.A.B.P.) of rat testicles (Rattus norvegicus, UniProt P62966); assay: Affinity for the cytosolic receptor of retinoic acid (C.R.A.B.P.) of rat testicles: inhibition of specific linking of tritiated retinoic acid; type: binding; settings: ligand 4 μM; tritiated retinoic acid 20 nM; rat testicle cytosol 2 mg/ml; 16 h at 4° C., pH 7.4; unmarked retinoic acid = 100% inhibition
T1 construct: to obtain the cytosol; from tissue; host or cells: rat testicles, 105000×g cytosol
Protocol: Affinity for the cytosolic receptor of retinoic acid (C.R.A.B.P.) of rat testicles
The affinity of the compounds of the formula I for the C.R.A.B.P. receptor is determined by measurement of the inhibition of the specific linking of tritiated retinoic acid (*AR) by the various compounds according to the method of ONG and CHYTIL (J. Biol. Chem., 1975, 250, 6113) modified:
The rat testicles thawed to 4° C. are placed in Tris-HCl 50 mM, DTE 2 mM buffer, pH 7.4, then ground in a Potter Teflon/glass grinder (three times at 800 rpm). The ground product is centrifuged at 4000×g for 10 min at 4° C.
The supernatant liquor is then centrifuged for 60 min at 105000×g at 4° C. to obtain the cytosol. The final protein concentration of the cytosol is adjusted to 2 mg/ml.
200 μl of cytosol are incubated for 16 h at 4° C. in the presence of tritiated retinoic acid 20 nM (specific activity: 30 Ci/mmole), in the presence of the ligands to be tested at the concentration of 4 μM.
The incubations are followed by treatment with charcoal-dextran (1%-0.0025%) for 30 min at 4° C. The bound radioactivity is determined by counting in liquid scintillation.

T1 sequence (P62966 whole entry): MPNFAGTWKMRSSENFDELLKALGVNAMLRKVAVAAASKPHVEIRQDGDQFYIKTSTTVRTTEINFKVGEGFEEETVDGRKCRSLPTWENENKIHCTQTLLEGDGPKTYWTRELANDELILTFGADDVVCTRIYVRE

Compound	inhibition at 4 µM [%]
C/C(=C\c1ccc(C(=O)O)cc1)c1ccccc1 [Compound 1]	18.9
C/C(=C\c1ccc(C(=O)O)cc1)c1ccc(C(C)C)cc1 [Compound 3, (E)-4-[2-(4-isopropylphenyl)propenyl]benzoic acid]	68.5
C/C(=C\c1ccc(C(=O)O)cc1)c1cccs1 [Compound 9]	18.5
C/C(=C\c1ccc(C(=O)N2CCN(C)CC2)cc1)c1ccc(C(C)C)cc1 [Compound 11]	27.5

The next lines start with the values.

inhibition at 4 µM [%]	Compound
67.5	C/C(=C\c1ccc(C(=O)O)cc1)c1cccc(C(C)C)c1 [Compound 12]
72.5	C/C(=C\c1ccc(C(=O)O)cc1)c1cc(C(C)C)cs1 [Compound 13]
75	C/C(=C\c1ccc(C(=O)O)cc1)c1ccc(C(C)C)s1 [Compound 14]
